One series has as its system GM-6114. Put plainly: MTT assay, cytotoxicity on normal fibroblasts. The series is classed as cell-based. To be noted: human, 48 h, 10 µM. On the technique in general: Formazan colour is commonly taken as a measure of viable cells.
Series [1] concerns washed platelets. The series is described as follows: Platelet aggregation (thrombin-induced, Born's method). The series is classed as cell-based. To be noted: Homo sapiens, 0.1 U/mL thrombin, mean ± SD, read-out: IC50 Aggregation inhibition. A digest of the protocol:
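Washed human platelets (3.0 × 10^8/mL) were preincubated with compound at 37 °C for 3 min. Aggregation was then triggered with 0.1 U/mL thrombin and measured by Born's turbidimetric method, with IC50 values calculated from the response.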

For a further series, the system named is SK-BR3. Put plainly: MTT assay, antiproliferative activity. The format is cell-based. To be noted: Homo sapiens, SK-BR-3, 48h. The procedure, abridged: (§1)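 Cells plated 16 h, then exposed to compounds at 10 μM final for 48 h at 37 °C, 5% CO2. MTT added for 4 h, formazan dissolved in DMSO, absorbance read at 570 nm; values as percent of DMSO-only control, mean of three experiments in six replicates.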

The next series concerns MDA-MB231. The series is described as follows: MTT assay, antiproliferative activity. The format is cell-based. As to conditions: Homo sapiens, MDA-MB-231, 48h. A digest of the protocol: as §1
For a further series, the system named is Hep-G2. The series is described as follows: MTT assay, antiproliferative activity. As to conditions: Homo sapiens, HepG2, 48h. The format is cell-based. A digest of the protocol:
as §1

Another series relates to A549. Put plainly: MTT assay, antiproliferative activity. The series is classed as cell-based. As to conditions: Homo sapiens, 48h, read-out: Mean Growth Percentage. A digest of the protocol: as §1
The test system of series [2] is washed platelets. The series is described as follows: ROS assay in platelets (DCFH-DA, thrombin-stimulated). As to conditions: Homo sapiens, Platelet, 0.1 U/mL thrombin, mean ± SD, read-out: IC50 ROS production inhibition. The series is classed as cell-based, human. The procedure, abridged: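 Washed human platelets (1.0 × 10^8/mL) in pH 7.4 HEPES buffer were pre-incubated 15 min at 37 °C with compound, then stimulated with 0.1 U/mL thrombin. ROS was read as DCF fluorescence from DCFH-DA by flow cytometry. IC50 comes from three-point concentration-response nonlinear regression versus saline control, mean of six experiments.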

The test system of another series is MCF7. Put plainly: MTT assay, antiproliferative activity. The series is classed as cell-based. As to conditions: Homo sapiens, 10 µM, 48h.
The test system of the next series is SKMEL28. The series is described as follows: MTT assay, antiproliferative activity. The format is cell-based. As to conditions: Homo sapiens, SK-MEL-28, 10 µM, 48h.
Another series has as its system HeLa. Put plainly: MTT assay, antiproliferative activity. The format is cell-based. As to conditions: Homo sapiens, 10 µM, 48h, read-out: Mean Growth Percentage.
A further series deals with SKOV3. The series is described as follows: MTT assay, antiproliferative activity. To be noted: Homo sapiens, SK-OV-3, 10 µM, 48h. The format is cell-based.
The nature of series [3]: DPPH radical-scavenging activity. On the set-up: AA (%), percentage of antioxidant activity: concentration or dose not given beside the values. As to conditions: mean ± SD, n = 2. The format is physicochemical. On the procedure: The antioxidant activity of the representative compounds of the two series (namely, acylhydrazones 10b, 11a, 11d, 12d, 13d, and amides 14, 22) was measured in vitro using the 2,2-diphenyl-1-picrylhydrazyl (DPPH) assay. The results were calculated as Trolox equivalent and expressed as a percentage of antioxidant activity (AA) (Table 3). […] Derivatives 10b and 12d were endowed with the highest antioxidant activity, thus highlighting the relevance of both pyrazole N1 and acylhydrazone substituents on compounds’ radical scavenging properties.
Compounds 10b, 11a, 11d, 12d, 13d, 14, and 22 (ca. 3 mg) were dissolved in DMSO (1 mL), and then 100 µL of this solution was mixed with 3.9 mL of DPPH methanol solution (65 µM). Absorbance was measured at 517 nm after reacting for 30 min in the dark. The linear calibration curve was obtained using Trolox standards (ranging between 20 and 200 mg/L, R^2 = 0.9955). The result was calculated as Trolox equivalent in mg/L, and the percentage of antioxidant activity (AA%) was calculated from the ratio of decreasing absorbance of sample solution (A0 − As) to absorbance of blank DPPH solution (A0), as expressed in Equation (1). (1) AA%=A0−As/A0×100
All analyses were carried out in duplicate (n = 2), and values are given as means ± standard deviation (SD).
(The DPPH test is a chemical assay of radical scavenging.)

On the set-up of series [4]: method as in PMID 32932211. To be noted: ABTS scavenging assay; cited from earlier work.

For orientation: melting point means the temperature, or range, at which the solid turns liquid. As a reminder, the IC50 is the concentration that inhibits the measured activity by half.

Method for GM-6114: Pyrazole acylhydrazones 10–13 and amides 14–22 were tested by MTT assay to evaluate their antiproliferative and cytotoxicity properties against a panel of eight tumor cell lines and normal fibroblasts.
The following cell lines were used for MTT assays: SKOV-3 (ovarian adenocarcinoma, ATCC, Manassas, VA, USA); MCF-7 (breast adenocarcinoma, Biologic Bank and Cell Factory, IRCCS Policlinico San Martino, Genoa, Italy); Hep-G2 (hepatocellular carcinoma, ATCC, Manassas, VA, USA); SK-MEL28 (skin melanoma, Biologic Bank and Cell Factory, IRCCS Policlinico San Martino, Genoa, Italy), GM-6114 (embryonic human fibroblast, ATCC, Manassas, VA, USA); MDA-MB231 (breast adenocarcinoma, Biologic Bank and Cell Factory, IRCCS Policlinico San Martino, Genoa, Italy); HeLa (cervical adenocarcinoma, Biologic Bank and Cell Factory, IRCCS Policlinico San Martino, Genoa, Italy); SK-BR3 (breast andenocarcinoma, Biologic Bank and Cell Factory, IRCCS Policlinico San Martino, Genoa, Italy); A549 (lung carcinoma, Biologic Bank and Cell Factory, IRCCS Policlinico San Martino, Genoa, Italy); HUVEC (Human Umbilical Vein Endothelial Cells, ATCC, Manassas, VA, USA). All cell lines were grown in their medium with 10% FBS, 2 mM Glutamine, and 1% penstrep and incubated at 37 °C in 5% CO2 in a humidified environment. The cell lines were plated in 96-well plates at an adequate number to reach 80–90% confluence at the end of the assay. 16 h after cell plating, a 10 mM DMSO stock solution of the compounds was diluted in growth medium and added at a final working concentration of 10 μM. After 48h of incubation, a 2 mg/mL PBS solution of MTT (3-(4,5-dimethyl-2-thiazolyl)-2,5-diphenyl-2H-tetrazolium bromide) was added (30 μL/well). After 4h, the supernatant was removed, and the Formazan precipitates were dissolved in DMSO (100 μL/well). The 96-well plates were incubated for 20 min, and absorbance was measured at 570 nm using a plate reader. The results are expressed as a percentage ratio over control samples (100%) in which the cells were incubated with the same amount of DMSO but without compounds. Each value is the mean of three independent experiments run in six replicates.

`COc1ccc(/C=N/NC(=O)c2c(N)nn(C)c2Nc2ccccc2)cc1OCc1ccccc1` [11d, (E)-3-amino-N′-(3-(benzyloxy)-4-methoxybenzylidene)-1-methyl-5-(phenylamino)-1H-pyrazole-4-carbohydrazide] registered a melting point of 183 to 186 °C. Moreover, the “Mean Growth Percentage” value in the series with GM-6114 was determined as 99.22%. Also, the IC50 in the series on washed platelets [1] turned out to be 890 ± 19 µM. Further, the Mean growth percentage at 10 µM in the series with SK-BR3 came to 90.2%. The same compound came in with a Mean growth percentage at 10 µM with MDA-MB231 of 98.6%. Also, the Mean growth percentage at 10 µM in the series on Hep-G2 stood at 111%. In the series on A549, the activity at 10 µM was determined as 101%. Further, the IC50 in the series on washed platelets [2] amounted to 182 ± 11 µM. Further, the mean growth percentage (cell growth remaining vs control) at 10 µM in the series with MCF7 was 82.9%. In the series with SKMEL28, this compound registered a Mean growth percentage at 10 µM of 89%. Moreover, in the series with HeLa, the activity at 10 µM was determined as 95.2%. Further, the Mean growth percentage at 10 µM with SKOV3 was determined as 103%. Also, in series [3], the “AA (%), percentage of antioxidant activity” value (“AA (%), percentage” for short) turned out to be 15.53 ± 0.24% and the “DPPH (%)” value is reported as 84.47 ± 0.24%.
Take `COc1ccc(/C=N/NC(=O)c2c(Nc3ccccc3)nn(C)c2N)cc1OCc1ccccc1` [12d, (E)-5-amino-N′-(3-(benzyloxy)-4-methoxybenzylidene)-1-methyl-3-(phenylamino)-1H-pyrazole-4-carbohydrazide]: in the series on GM-6114, the “Mean Growth Percentage” value was 102.79%. The IC50 in the series with washed platelets [1] turned out to be 433 ± 16 µM; with washed platelets [2], 171 ± 9 µM. The Mean growth percentage at 10 µM in the series with SK-BR3 was 90.6%; in the series on MDA-MB231 it was 94.1%; in the series on Hep-G2 it was 105%; with SKMEL28, 80.8%; in the series on SKOV3, 106%. In addition, the activity at 10 µM in the series with A549 came to 102%; in the series with HeLa, 85.7%. The mean growth percentage (cell growth remaining vs control) at 10 µM in the series on MCF7 was 85.2%. The “AA (%), percentage” value in series [3] is 69.10 ± 0.39%. In series [3], the “DPPH (%)” value stood at 30.90 ± 0.39%.
With `COc1ccc(/C=N/NC(=O)c2c(Nc3ccccc3)nn(CC(O)c3ccccc3)c2N)cc1OCc1ccccc1` (stereo not shown) [13d, (E)-5-amino-N′-(3-(benzyloxy)-4-methoxybenzylidene)-1-(2-hydroxy-2-phenylethyl)-3-(phenylamino)-1H-pyrazole-4-carbohydrazide], the melting point lay within 170 to 173 °C. The “Mean Growth Percentage” value with GM-6114 is listed as 95.39%. Moreover, in the series with washed platelets [1], the IC50 stood at 437 ± 25 µM. Besides, the Mean growth percentage at 10 µM in the series on SK-BR3 is 97.9%. The Mean growth percentage at 10 µM with MDA-MB231 amounted to 93.8%. The compound further returned a Mean growth percentage at 10 µM with Hep-G2 of 120%. For the same compound, in the series with A549, the activity at 10 µM was determined as 90.4%. The 50% inhibitory concentration (IC50) in the series with washed platelets [2] came out at 405 ± 29 µM. The mean growth percentage (cell growth remaining vs control) at 10 µM with MCF7 was found to be 108%. For the same compound, in the series on SKMEL28, the Mean growth percentage at 10 µM amounted to 93.9%. For the same compound, the activity at 10 µM in the series on HeLa was determined as 96.7%. For the same compound, the Mean growth percentage at 10 µM in the series with SKOV3 was determined as 112%. Further, in series [3], the “AA (%), percentage” value was 56.29 ± 1.18% and the “DPPH (%)” value came out at 43.71 ± 1.18%.
For `Nc1c(C(F)(F)F)n[nH]c1-c1ccccc1` [IIa], in [4], the IC50 was 14.1 µM and the “Trolox equivalent antioxidant capacity (TEAC)” value is on record as 1.35.
As to `Nc1c(C(F)(F)F)n[nH]c1-c1cccs1` [IIb], in series [4], the IC50 was 17.6 µM and the “Trolox equivalent antioxidant capacity (TEAC)” value is 1.10.
Compound `COC(=O)c1c(NC(=O)c2cc(OC)c(OC)c(OC)c2)n[nH]c1Nc1ccccc1` [compound 14, Methyl 5-(phenylamino)-3-(3,4,5-trimethoxybenzamido)-1H-pyrazole-4-carboxylate] returned a melting point of 164 to 166 °C. The “Mean Growth Percentage” value in the series on GM-6114 came to 39.31%. Further, the IC50 in the series on washed platelets [1] worked out at 365 ± 28 µM. This compound yielded a Mean growth percentage at 10 µM in the series on SK-BR3 of 53.8%. Moreover, the Mean growth percentage at 10 µM in the series with MDA-MB231 is 57%. In the series with Hep-G2, this compound displayed a Mean growth percentage at 10 µM of 67.2%. Moreover, the activity at 10 µM in the series with A549 turned out to be 35.1%. The IC50 in the series on washed platelets [2] turned out to be 387 ± 35 µM. For the same compound, in the series on MCF7, the mean growth percentage (cell growth remaining vs control) at 10 µM was 66.1%. This compound registered a Mean growth percentage at 10 µM in the series with SKMEL28 of 41.5%. The activity at 10 µM with HeLa came to 9.45%. The same compound displayed a Mean growth percentage at 10 µM in the series with SKOV3 of 38.5%. In addition, in series [3], the “AA (%), percentage” value is reported as 3.62 ± 0.08% and the “DPPH (%)” value is recorded as 96.38 ± 0.08%.
As for `CCOC(=O)c1c(NC(=O)c2cc(OC)c(OC)c(OC)c2)nn(C)c1Nc1ccccc1` [compound 22, Ethyl 1-methyl-5-(phenylamino)-3-(3,4,5-trimethoxybenzamido)-1H-pyrazole-4-carboxylate], the melting point fell in the range of 135 to 138 °C. Besides, in the series with GM-6114, the “Mean Growth Percentage” value was 57.94%. In the series with washed platelets [1], the 50% inhibitory concentration (IC50) worked out at 249 ± 22 µM. This compound also yielded a Mean growth percentage at 10 µM in the series with SK-BR3 of 103%. This compound also gave a Mean growth percentage at 10 µM in the series with MDA-MB231 of 140%. Also, in the series with Hep-G2, the Mean growth percentage at 10 µM is 102%. Besides, the activity at 10 µM in the series with A549 was 106%. Also, the 50% inhibitory concentration (IC50) in the series with washed platelets [2] came to 313 ± 25 µM. In the series on MCF7, the mean growth percentage (cell growth remaining vs control) at 10 µM was found to be 115%. In the series with SKMEL28, the Mean growth percentage at 10 µM was found to be 84.1%. For the same compound, the activity at 10 µM in the series on HeLa came out at 109%. This compound also registered a Mean growth percentage at 10 µM with SKOV3 of 94.2%. Further, in [3], the “AA (%), percentage” value was found to be 2.39 ± 0.24% and the “DPPH (%)” value is reported as 97.61 ± 0.24%.
